Reference: patent US7423015B1, “Antihelminthic drugs as a treatment for hyperproliferative diseases” (Board of Regents, The University of Texas System, priority 2001, dated 2008)

Legend:
[1] = tested on: A549 metastatic lung colonies; experiment: Lung metastases in vivo after tail vein injection; parameters: species or system female nude mice
Experimental: To establish lung metastases, female nude mice were injected intravenously via tail vein with 10^6 A549 tumor cells suspended in […] of sterile PBS. Six days later, mice were divided into two groups of 5 mice each and treated. Group 1 received no treatment and group 2 received the experimental MZ drug orally at 1 mg of drug (100 μl) twice a week for 3 weeks. After 3 weeks, animals were euthanized by CO2 inhalation. Lungs from each of the mice from the two groups were injected intra-tracheally with India ink and fixed in Feketes solution. The therapeutic effect of MZ treatment was determined by counting the number of metastatic tumors in each lung under a dissecting microscope without knowledge of the treatment groups. The experiments were performed three times and data analyzed and interpreted as statistically significant if the p value was <0.05 by the Mann-Whitney rank-sum test.
Next, the inventors asked whether treatment with MZ would inhibit the growth of human metastatic lung cancer cells in vivo. About 300 metastatic colonies appeared on untreated mice 21 days after A549 cell injection into the tail vein (FIG. 6). This technique was reproducible as the totals blindly counted by two investigators differed by less than 10%. This experiment was performed three times with similar results. The oral administration of […] MZ reduced mean colony count to 80% of the mean value for controls (P<0.0001).

[2] = tested on: HUVEC cell tube formation; experiment: HUVEC tube formation in conditioned medium; assay type: cell-based, human
Source text: One of the most encouraging findings is that MZ inhibited the neovascularization in the human xenografts tested. […] The inventors have thus shown that MZ is a potent antiangiogeneic agent. It had no effect on endothelial cell growth, instead directly targeting tumor cells in vivo. MZ may be effective in the treatment of cancer and other angiogenesis-dependent diseases.

[3] = molecular target: topoisomerase I (Homo sapiens, UniProt P11387); experiment: Test for topoisomerase I poison effect; assay type: biochemical
Chain of topoisomerase I (P11387 whole entry): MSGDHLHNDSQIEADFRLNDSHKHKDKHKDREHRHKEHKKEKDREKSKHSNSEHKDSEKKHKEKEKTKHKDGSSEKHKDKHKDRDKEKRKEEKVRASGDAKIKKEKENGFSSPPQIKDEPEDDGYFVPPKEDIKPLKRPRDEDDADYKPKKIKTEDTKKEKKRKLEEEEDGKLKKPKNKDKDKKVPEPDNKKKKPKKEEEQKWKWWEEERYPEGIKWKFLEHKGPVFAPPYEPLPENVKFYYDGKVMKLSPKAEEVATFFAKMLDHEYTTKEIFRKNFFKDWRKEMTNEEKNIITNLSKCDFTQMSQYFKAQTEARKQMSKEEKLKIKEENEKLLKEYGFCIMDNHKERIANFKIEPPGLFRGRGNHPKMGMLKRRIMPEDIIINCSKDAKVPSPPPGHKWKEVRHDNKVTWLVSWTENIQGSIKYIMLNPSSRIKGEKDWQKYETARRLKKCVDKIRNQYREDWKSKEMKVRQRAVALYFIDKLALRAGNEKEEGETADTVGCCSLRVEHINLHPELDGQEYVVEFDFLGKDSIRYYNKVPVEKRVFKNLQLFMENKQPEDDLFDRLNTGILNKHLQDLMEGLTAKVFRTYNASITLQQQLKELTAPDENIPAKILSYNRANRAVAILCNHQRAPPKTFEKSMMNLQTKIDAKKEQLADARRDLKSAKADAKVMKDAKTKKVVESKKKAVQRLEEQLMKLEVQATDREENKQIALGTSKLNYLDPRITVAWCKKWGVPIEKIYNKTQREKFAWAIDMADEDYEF
Source text: It has been shown recently that BZ are substrates for the P-glycoprotein transporter in multidrug-resistant tumor cells (Nare et al. 1994). It may be speculated that P-glycoprotein, which is overexpressed in several normal tissues and organs, could mediate the transport of BZ. Some terbenzimidazole compounds have been reported to be topoisomerase I poisons (Pilch et al., 1996).

COC(=O)Nc1nc2ccc(C(=O)c3ccccc3)cc2[nH]1 [Mebendazole, Methyl 5-benzoylbenzimidazole-2-carbamate]
size of tumor colonies (transverse diameter) ([1]; H and E staining of lung tissues): significantly reduced
mean colony count, % of the mean value for controls ([1]; oral administration of 1 mg/ml MZ, 21 days after A549 injection, P<0.0001): 80%
HUVEC cell tube formation [2]: inhibited
topoisomerase I poison effect [3]: could not detect any
